Experimental data from the Kinase Knowledgebase extract (Sharma et al. 2016).

Molecular target: EGFR (Wistar rat) (UniProt P00533)
Conditions: hepatocyte, dose or concentration not given here

Sequence of EGFR (Wistar rat) (P00533 whole entry, looked up): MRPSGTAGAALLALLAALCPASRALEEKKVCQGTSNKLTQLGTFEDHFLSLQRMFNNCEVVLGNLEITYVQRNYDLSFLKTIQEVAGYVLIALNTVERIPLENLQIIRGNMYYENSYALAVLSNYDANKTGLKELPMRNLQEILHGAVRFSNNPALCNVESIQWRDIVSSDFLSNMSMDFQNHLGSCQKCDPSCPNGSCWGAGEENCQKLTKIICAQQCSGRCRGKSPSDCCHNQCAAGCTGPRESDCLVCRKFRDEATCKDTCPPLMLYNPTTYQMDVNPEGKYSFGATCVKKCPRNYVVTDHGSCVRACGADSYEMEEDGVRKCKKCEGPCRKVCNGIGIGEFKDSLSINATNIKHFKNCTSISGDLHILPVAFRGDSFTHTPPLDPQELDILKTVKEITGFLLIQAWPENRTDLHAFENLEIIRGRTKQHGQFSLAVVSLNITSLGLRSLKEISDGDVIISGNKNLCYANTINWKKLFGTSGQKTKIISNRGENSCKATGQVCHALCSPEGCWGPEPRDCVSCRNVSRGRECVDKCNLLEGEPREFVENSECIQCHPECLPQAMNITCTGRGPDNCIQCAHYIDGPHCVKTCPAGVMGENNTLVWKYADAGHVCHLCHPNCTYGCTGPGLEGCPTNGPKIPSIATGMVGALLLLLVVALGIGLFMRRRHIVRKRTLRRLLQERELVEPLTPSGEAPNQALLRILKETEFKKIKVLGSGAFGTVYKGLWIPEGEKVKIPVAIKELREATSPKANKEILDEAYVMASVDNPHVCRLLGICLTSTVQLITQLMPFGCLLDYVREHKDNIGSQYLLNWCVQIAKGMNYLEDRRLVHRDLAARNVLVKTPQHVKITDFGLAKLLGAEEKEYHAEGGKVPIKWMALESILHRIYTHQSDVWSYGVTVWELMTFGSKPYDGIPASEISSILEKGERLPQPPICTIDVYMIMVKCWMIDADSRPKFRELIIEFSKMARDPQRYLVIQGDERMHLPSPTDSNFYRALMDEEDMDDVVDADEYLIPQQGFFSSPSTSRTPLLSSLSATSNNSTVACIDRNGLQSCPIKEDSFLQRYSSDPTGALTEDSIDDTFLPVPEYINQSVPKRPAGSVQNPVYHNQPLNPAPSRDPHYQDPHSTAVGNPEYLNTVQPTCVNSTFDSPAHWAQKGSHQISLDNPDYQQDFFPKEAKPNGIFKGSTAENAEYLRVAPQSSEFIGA

For `COc1cccc(-c2cc(=O)c3ccccc3o2)c1N`, the DNA synthesis was 16%.
